From paper PMC9719519, “Non-classical ferroptosis inhibition by a small molecule targeting PHB2” (Nature Communications, 2022) come the findings set out here.

Holding throughout (assay): biochemical
Holding throughout (set-up): Eurofins recombinant human kinase profiling, remaining kinase activity as % of control, 10 uM ATP
What all share (conditions): ATP 10 uM; read-out: %Ctrl@10 μM

Experiment [1] concerns the target T1, A-Raf(h) (Homo sapiens, UniProt P10398).
T1 construct: gene ARAF
A digest of the protocol:
(§1)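 Activity measured in a commercial panel of 401 recombinant human protein kinases run as a kinase profiling service.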

In experiment [2] the target is T2, Abl(h) (Homo sapiens, UniProt P00519).
T2 construct: gene ABL1
T2 sequence (P00519 whole entry): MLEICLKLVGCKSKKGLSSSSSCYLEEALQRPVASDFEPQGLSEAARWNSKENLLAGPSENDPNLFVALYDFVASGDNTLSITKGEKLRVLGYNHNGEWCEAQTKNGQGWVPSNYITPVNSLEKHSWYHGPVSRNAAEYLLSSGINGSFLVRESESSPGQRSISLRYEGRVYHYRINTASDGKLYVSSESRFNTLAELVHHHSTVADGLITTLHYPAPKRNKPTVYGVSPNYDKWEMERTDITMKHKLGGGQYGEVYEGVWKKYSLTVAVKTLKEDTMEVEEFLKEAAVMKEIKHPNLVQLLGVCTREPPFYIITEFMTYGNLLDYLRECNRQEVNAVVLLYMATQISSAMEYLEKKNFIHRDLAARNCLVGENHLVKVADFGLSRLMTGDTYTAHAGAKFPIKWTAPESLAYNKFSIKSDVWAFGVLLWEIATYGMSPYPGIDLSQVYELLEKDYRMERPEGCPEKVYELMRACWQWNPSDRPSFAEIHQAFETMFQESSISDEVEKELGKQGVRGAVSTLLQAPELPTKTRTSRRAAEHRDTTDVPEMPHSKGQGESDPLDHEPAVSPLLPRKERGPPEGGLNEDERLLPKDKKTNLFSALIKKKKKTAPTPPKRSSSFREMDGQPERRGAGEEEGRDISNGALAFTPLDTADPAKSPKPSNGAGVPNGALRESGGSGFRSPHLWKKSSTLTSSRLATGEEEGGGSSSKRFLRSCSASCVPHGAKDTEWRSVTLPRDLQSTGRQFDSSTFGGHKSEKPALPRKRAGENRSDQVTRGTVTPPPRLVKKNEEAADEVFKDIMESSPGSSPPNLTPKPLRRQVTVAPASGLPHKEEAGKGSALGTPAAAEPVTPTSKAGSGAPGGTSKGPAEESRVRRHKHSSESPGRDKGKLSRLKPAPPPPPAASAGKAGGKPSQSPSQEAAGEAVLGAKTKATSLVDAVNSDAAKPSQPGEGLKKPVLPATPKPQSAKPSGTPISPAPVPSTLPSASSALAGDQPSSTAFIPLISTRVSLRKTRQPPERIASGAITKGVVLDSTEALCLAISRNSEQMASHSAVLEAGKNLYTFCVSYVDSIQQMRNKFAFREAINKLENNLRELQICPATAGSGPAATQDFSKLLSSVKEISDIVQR
A digest of the protocol: as §1

For experiment [3], the target named is T3, CK1δ(h) (Homo sapiens, UniProt P48730).
T3 construct: gene CSNK1D
T3 sequence (P48730 whole entry): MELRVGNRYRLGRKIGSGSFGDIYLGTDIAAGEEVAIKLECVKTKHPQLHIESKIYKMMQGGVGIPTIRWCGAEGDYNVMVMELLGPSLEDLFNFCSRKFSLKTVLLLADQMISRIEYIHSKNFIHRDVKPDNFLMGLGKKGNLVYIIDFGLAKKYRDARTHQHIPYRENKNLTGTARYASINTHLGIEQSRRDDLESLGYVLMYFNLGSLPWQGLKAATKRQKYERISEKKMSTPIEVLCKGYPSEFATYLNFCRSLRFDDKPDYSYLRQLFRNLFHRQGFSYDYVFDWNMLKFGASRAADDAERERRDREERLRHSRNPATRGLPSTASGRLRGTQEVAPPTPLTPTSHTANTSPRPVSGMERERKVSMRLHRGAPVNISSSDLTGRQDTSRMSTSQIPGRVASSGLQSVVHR
In outline: as §1

Experiment [4] concerns the target DAPK1(h) (Homo sapiens, UniProt P53355). A digest of the protocol: as §1
Experiment [5] addresses DDR1(h) (Homo sapiens, UniProt Q08345). In outline:
as §1

Experiment [6] concerns the target EGFR(T790M,L858R)(h) (Homo sapiens, UniProt P00533, L858R/T790M). In outline: as §1
Experiment [7] addresses Flt3(D835Y)(h) (Homo sapiens, UniProt P36888, D835Y). In outline:
as §1

The target of experiment [8] is Hck(h) activated (Homo sapiens, UniProt P08631). A digest of the protocol: as §1
Chain of Hck(h) activated (P08631 whole entry): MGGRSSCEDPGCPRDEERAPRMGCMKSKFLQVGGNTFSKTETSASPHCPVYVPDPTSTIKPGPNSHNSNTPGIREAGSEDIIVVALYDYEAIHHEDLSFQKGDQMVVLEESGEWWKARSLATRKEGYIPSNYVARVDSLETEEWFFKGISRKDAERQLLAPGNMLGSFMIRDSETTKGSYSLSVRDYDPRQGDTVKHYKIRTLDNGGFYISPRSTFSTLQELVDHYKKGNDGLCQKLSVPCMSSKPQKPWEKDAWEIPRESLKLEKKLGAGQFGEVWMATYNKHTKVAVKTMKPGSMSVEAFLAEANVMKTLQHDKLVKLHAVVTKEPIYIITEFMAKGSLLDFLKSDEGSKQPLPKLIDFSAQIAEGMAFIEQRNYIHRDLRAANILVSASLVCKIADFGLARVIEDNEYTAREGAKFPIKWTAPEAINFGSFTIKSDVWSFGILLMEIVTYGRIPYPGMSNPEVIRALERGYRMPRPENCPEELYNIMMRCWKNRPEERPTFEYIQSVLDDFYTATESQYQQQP
Experiment [9] has as its target T4, MAPK2(h) (Homo sapiens, UniProt P28482).
T4 construct: gene MAPK1
A digest of the protocol: as §1

Experiment [10] has as its target MARK1(h) (Homo sapiens, UniProt Q9P0L2). A digest of the protocol: as §1
Experiment [11] deals with T5, MKK3(h) (Homo sapiens, UniProt P46734).
T5 construct: gene MAP2K3
T5 sequence (P46734 whole entry): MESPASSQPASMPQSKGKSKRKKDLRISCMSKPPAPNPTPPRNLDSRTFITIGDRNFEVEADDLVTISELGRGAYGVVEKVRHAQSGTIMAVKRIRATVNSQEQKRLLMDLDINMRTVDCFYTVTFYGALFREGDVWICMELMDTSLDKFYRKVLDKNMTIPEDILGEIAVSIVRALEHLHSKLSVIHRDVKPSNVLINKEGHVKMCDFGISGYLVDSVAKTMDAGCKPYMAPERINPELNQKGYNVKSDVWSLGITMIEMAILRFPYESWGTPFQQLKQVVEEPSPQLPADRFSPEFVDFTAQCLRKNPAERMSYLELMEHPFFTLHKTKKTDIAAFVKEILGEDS
A digest of the protocol: as §1

Experiment [12] concerns the target T6, NDR2(h) (Homo sapiens, UniProt Q9Y2H1).
T6 construct: gene STK38L
In outline:
as §1

The target of experiment [13] is PAK6(h) (Homo sapiens, UniProt Q9NQU5). A digest of the protocol:
as §1

The target in experiment [14] is T7, PKCβI(h) (Homo sapiens, UniProt P05771).
T7 construct: gene PRKCB; isoform beta I
In outline: as §1

The target in experiment [15] is RIPK1(h) (Homo sapiens, UniProt Q13546). A digest of the protocol: as §1
Experiment [16] concerns the target T8, Ron(h) (Homo sapiens, UniProt Q04912).
T8 construct: gene MST1R
In outline:
as §1

For experiment [17], the target named is T9, Rsk1(h) (Homo sapiens, UniProt Q15418).
T9 construct: gene RPS6KA1
A digest of the protocol: as §1

The target of experiment [18] is SGK3(h) (Homo sapiens, UniProt Q96BR1). A digest of the protocol:
as §1

The target in experiment [19] is STK25(h) (Homo sapiens, UniProt O00506). A digest of the protocol:
as §1

Experiment [20] concerns the target TYK2(h) (Homo sapiens, UniProt P29597). A digest of the protocol: as §1
Experiment [21] has as its target T10, TrkB(h) (Homo sapiens, UniProt Q16620).
T10 construct: gene NTRK2
In outline:
as §1

Experiment [22] addresses T11, Wee1B(h) (Homo sapiens, UniProt P0C1S8).
T11 construct: gene WEE2
A digest of the protocol: as §1

Molecules are shown by their SMILES.

T11 sequence (P0C1S8 whole entry): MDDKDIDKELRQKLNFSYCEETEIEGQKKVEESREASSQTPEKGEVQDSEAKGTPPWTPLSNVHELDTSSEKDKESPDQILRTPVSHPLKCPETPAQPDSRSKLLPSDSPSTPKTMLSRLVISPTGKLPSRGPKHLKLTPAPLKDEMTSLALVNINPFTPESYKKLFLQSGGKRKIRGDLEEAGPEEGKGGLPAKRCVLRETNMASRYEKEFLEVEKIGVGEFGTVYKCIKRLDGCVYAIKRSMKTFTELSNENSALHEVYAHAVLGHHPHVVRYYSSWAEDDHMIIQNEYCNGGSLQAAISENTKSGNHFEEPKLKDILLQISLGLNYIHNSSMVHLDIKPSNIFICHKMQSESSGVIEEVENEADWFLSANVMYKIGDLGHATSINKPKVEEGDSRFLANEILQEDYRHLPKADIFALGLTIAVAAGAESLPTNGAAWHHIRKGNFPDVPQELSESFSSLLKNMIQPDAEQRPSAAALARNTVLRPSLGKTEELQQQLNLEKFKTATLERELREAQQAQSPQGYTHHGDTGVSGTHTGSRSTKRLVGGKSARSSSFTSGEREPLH
T4 sequence (P28482 whole entry): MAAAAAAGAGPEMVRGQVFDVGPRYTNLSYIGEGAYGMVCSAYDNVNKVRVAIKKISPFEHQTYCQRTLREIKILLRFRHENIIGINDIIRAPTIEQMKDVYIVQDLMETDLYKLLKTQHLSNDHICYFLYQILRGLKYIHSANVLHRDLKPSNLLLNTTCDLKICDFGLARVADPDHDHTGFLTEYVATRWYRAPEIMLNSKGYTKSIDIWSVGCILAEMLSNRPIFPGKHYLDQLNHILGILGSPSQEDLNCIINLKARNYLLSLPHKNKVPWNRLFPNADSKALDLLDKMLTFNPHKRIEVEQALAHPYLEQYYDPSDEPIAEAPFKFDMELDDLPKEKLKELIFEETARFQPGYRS
Chain of DDR1(h) (Q08345 whole entry): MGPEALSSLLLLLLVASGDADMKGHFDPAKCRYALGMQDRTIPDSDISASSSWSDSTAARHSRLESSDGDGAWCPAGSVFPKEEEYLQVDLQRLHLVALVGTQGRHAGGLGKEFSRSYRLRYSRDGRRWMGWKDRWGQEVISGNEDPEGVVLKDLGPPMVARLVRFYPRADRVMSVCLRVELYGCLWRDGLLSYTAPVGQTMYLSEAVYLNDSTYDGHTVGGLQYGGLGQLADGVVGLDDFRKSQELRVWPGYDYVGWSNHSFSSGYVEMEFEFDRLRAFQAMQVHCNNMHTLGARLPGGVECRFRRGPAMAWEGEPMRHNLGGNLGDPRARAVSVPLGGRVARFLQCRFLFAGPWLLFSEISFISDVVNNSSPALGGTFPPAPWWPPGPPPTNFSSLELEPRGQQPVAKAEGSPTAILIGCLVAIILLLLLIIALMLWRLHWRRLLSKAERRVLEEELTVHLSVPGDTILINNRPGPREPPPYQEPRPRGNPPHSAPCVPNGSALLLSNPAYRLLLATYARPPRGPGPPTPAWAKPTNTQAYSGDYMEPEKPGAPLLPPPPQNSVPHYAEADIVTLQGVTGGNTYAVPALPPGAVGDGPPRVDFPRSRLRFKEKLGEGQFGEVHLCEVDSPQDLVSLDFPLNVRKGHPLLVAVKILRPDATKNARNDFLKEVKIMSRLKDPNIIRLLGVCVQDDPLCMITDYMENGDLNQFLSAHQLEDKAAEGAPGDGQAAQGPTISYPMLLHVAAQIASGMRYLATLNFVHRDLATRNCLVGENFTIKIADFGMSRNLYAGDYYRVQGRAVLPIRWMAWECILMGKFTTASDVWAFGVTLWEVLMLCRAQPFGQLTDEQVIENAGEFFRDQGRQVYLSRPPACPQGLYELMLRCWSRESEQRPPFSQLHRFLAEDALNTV
T6 sequence (Q9Y2H1 whole entry): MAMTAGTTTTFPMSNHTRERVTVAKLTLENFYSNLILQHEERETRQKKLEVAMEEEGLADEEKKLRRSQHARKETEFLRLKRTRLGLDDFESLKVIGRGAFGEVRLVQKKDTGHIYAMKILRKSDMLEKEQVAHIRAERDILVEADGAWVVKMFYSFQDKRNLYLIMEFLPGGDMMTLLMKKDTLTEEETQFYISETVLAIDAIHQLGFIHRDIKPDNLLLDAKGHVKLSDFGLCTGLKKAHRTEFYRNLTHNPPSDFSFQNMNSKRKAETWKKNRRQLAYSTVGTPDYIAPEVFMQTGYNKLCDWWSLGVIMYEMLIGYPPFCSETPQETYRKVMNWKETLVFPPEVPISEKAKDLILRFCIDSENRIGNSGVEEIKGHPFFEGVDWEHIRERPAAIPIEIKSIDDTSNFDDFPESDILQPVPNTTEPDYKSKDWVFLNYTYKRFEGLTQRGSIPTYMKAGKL

For `C1=C(c2nc(-c3cnn(C4CCNCC4)c3)cn3cc(-c4ccccc4)nc23)CCOC1` [YL-939], the remaining activity at 10 µM in experiment [1] turned out to be 83%; in experiment [2], 102%; in [3], 111%; in experiment [4], 82%; in experiment [5], 98%; in [6], 91%. Also, the remaining activity at 10 µM in experiment [7] came out at 95%; in experiment [8] it was 105%; in experiment [9], 88%; in [10] it was 95%; in [11], 107%; in [12], 87%. Also, the remaining activity at 10 µM in experiment [13] was 65%; in [14] it was 98%; in [15] it was 106%; in [16], 99%; in experiment [17], 94%; in [18], 83%. In addition, the remaining activity at 10 µM in experiment [19] was found to be 82%; in [20], 95%; in experiment [21] it was 81%; in experiment [22], 92%.
